In article PMC12294558, “New 1,2,4-Triazole Derivatives with a N-Mannich Base Structure Based on a 4,6-Dimethylpyridine Scaffold as Anticancer Agents: Design, Synthesis, Biological Evaluation, and Molecular Modeling” (International Journal of Molecular Sciences, 2025):

How the values were obtained:
[1] = tested on: HT-29 cells; assay: MTT viability assay, colorectal cancer cells HT-29; assay type: cell-based, human; conditions: for SI, HT-29: CC50 CCD 841 CoTr / CC50 HT-29; for CC50: Homo sapiens, HT-29, MTT, 24 h, read-out: CC50 ± SD, HT-29
Method: (§1) The cytotoxic effects of ten newly synthesized N-Mannich bases were assessed on the normal human intestinal epithelium (CCD 841 CoTr) and cancer cell lines: gastric cancer (EPG) and four colorectal cancer lines (Caco-2, LoVo, LoVo/Dx, and HT-29). Cell viability was evaluated using the MTT assay in accordance with Annex C of ISO 10993-5 [33].
(§2) The biological activity of the newly synthesized compounds was assessed in the context of anticancer activity. For this purpose, several gastrointestinal cancer lines were selected: gastric cancer (EPG 257, which belongs to the collection of the Laboratory of Cell Culture and Advanced Therapy at the University of Environmental and Life Sciences in Wrocław), and four colorectal cancer cell lines (LoVo, Caco-2, and HT-29) were obtained from the European Collection of Authenticated Cell Cultures (ECACC) and were delivered by Sigma-Aldrich, a certified distributor for the biobank. Additionally, LoVo cells were used to develop a doxorubicin-resistant subline, referred to as LoVo/Dx. Resistance was induced through gradual adaptation to increasing concentrations of doxorubicin, starting from 0.1 µg/mL and incrementally raised to 0.8 µg/mL. After reaching the maximum concentration, the cells were maintained in a medium containing 0.4 µg/mL doxorubicin for a period of three months to stabilize the resistant phenotype. […] The resulting LoVo/Dx subline, resistant to doxorubicin, was cultured in DMEM/F-12 medium and utilized in assays evaluating the effectiveness of novel compounds against multidrug-resistant cancer cells. […] The non-cancerous cell control was normal colonic epithelial cells (CCD 841 CoTr from American Type Culture Collection, (ATCC, Manassas, VA, USA)). Cell cultures were performed under standard conditions (5% CO2, 95% humidity, and 37 °C). Each cell line was cultured in the recommended medium: (1) HT-29 in McCoy’s 5a, (2) Caco-2 in Minimal Essential Medium (MEM, Biological Industries, Beit Haemek, Israel), (3) CCD 841 CoTr in Dulbecco’s Modified Eagle Medium (DMEM, Biological Industries, Beit Haemek, Israel), (4) LoVo in Dulbecco’s Modified Eagle Medium/F-12 (DMEM/F-12; Biological Industries, Beit Haemek, Israel), (5) LoVo/Dx in DMEM/F-12, and (6) EPG in DMEM. Culture media were supplemented with 10% fetal bovine serum (FBS, Sigma-Aldrich, Darmstadt, Germany) and antibiotics (penicillin and streptomycin; Sigma-Aldrich, Darmstadt, Germany). For assays, trypsinized (TrypLE solution, Thermo Fisher Scientific, Waltham, MA, USA) cells were seeded at appropriate densities of 10,000 cells per well for MTT and determination of apoptotic and necrotic cell numbers; 30,000 cells per well for the rhodamine accumulation assay; and 500,000 cells per well for ELISA tests.
(§3) The cytotoxicity of the compounds and drugs used as controls was assessed using the MTT assay. The assay also included a DMSO control. After seeding and allowing the cells to adhere overnight, they were treated with the tested compounds and drugs for another 24 h. After this time, the supernatant was removed, and a 1 mg/mL MTT solution was added for 2 h in 5% CO2, 95% humidity, at 37 °C. The supernatant was then removed, and isopropanol was added to dissolve the purple crystals over 30 min by shaking. Absorbance was measured at 570 nm in a Multiskan GO microplate reader (Thermo Fisher Scientific; Waltham, MA, USA). All reagents used for the assays were purchased from Sigma-Aldrich, Darmstadt, Germany.
(§4) Biological assays were performed in three independent replicates, each involving four samples. ELISA determinations were repeated three times.

[2] = tested on: LoVo/Dx cells; assay: MTT viability assay, doxorubicin-resistant LoVo/Dx; assay type: cell-based, human; conditions: for SI, LoVo/Dx: CC50 CCD 841 CoTr / CC50 LoVo/Dx; for CC50: Homo sapiens, LoVo/DX, MTT, 24 h, read-out: CC50 ± SD, LoVo/Dx
Method: as §1, §2, §3, §4

[3] = tested on: interleukin-1β; assay: IL-1β ELISA in HT-29 supernatant; assay type: cell-based, human; conditions: HT-29, 1 µM
Text: (§5) The different effects of the anticancer compound on IL-6 and IL-1β can be explained by the different regulatory mechanisms of these cytokines and the distinct signaling pathways targeted by the therapy. The reduction in IL-6 levels may be due to the direct action of the compound on pathways promoting this cytokine or its ability to inhibit inflammatory processes specific to IL-6. In contrast, the increase in IL-1β levels might result from the inflammatory response to cellular stress or apoptosis induced by the therapy, leading to activation of the immune system and increased production of IL-1β.
(§6) Cytokine levels (IL-1β and IL-6) in the supernatant were measured for HT-29 and EPG cells treated with compounds 5 and 6, according to the instructions provided by the manufacturer of the ELISA kits were purchased from Abcam (Cambridge, UK). The absorbance was measured using a Multiskan GO microplate reader (Thermo Fisher Scientific, Waltham, MA, USA) at wavelengths specific to each kit, as recommended by the manufacturer.

[4] = tested on: Caspase-3; assay: Human Caspase-3 (active) ELISA on HT-29 cell lysates; assay type: cell-based; conditions: HT-29, 1 µM, 24 h
Method: (§7) To check the effect of compound 6 on the level of p-53 and caspase-3 protein, another test was performed on HT-29 cells, taking doxorubicin as the reference drug.
(§8) To assess the level of caspase-3 and p53 protein, HT-29 cell lysates were used after 24 h of incubation with compounds 5 and 6. The supernatant was collected in the prepared and labeled tubes, the cells from the wells were scraped, and the wells were washed with cold PBS, which was also collected. The tubes were then centrifuged, the supernatant was removed, and the cell pellet was lysed in a cell extraction vessel for 30 min on ice, with […] every 10 min. The lysate was transferred to centrifuge tubes and centrifuged at 13,000 rpm for 10 min at 4 °C. The supernatant was transferred to clean tubes in a microcentrifuge.
(§9) The following kits were used: Human Caspase-3 (active) ELISA Kit (KHO1091) and p53 Human ELISA Kit (BMS256), used following the manufacturer’s instructions. ELISA kits were purchased from Thermo Fisher Scientific (Waltham, MA, USA). The absorbance was measured using a Multiskan GO microplate reader (Thermo Fisher Scientific, Waltham, MA, USA) at wavelengths specific to each kit, as recommended by the manufacturer.

[5] = tested on: interleukin-6; assay: IL-6 ELISA in HT-29 supernatant; assay type: cell-based, human; conditions: HT-29, 1 µM
Text: as §5, §6

[6] = tested on: p53; assay: p53 Human ELISA on HT-29 cell lysates; assay type: cell-based; conditions: HT-29, 1 µM, 24 h
Method: as §7, §8, §9

| Structure (SMILES) | SI, HT-29 [1] | CC50 [1] [µM] | SI, LoVo/Dx [2] | CC50 [2] [µM] | IL-1β Conc. ± SD [3] [pg/mL] | Caspase-3 Conc. ± SD [4] [ng/mL] | IL-6 Conc. ± SD [5] [pg/mL] | p53 Conc. ± SD [6] [U/mL] |
| --- | --- | --- | --- | --- | --- | --- | --- | --- |
| Cc1cc(C)c(C(=O)NCc2nn(CN3CCN(c4cccc(Cl)c4)CC3)c(=S)n2-c2ccccc2)c(S)n1 [Compound 5, 4,6-dimethyl-N-[(4-phenyl-5-thioxo-2-{[4-(3-chlorophenyl)piperazinyl]methyl}-4,5-dihydro-1H-1,2,4-triazol-3-yl)methyl]-2-sulfanylpyridine-3-carboxamide] | 2.15 | 102 ± 2.7 | 1.20 | 184 ± 2.7 | – | – | – | – |
| Cc1ccc(N2CCN(Cn3nc(CNC(=O)c4c(C)cc(C)nc4S)n(-c4ccccc4)c3=S)CC2)cc1 [Compound 6] | 3.16 | 123 ± 3.9 | 1.99 | 195 ± 5.7 | 0.51 ± 0.11 | 0.48 ± 0.07 | 7.80 ± 0.30 | 3.50 ± 0.07 |
